# From PubChem BioAssay (NCI)
#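 96-well plates; 48 h exposure; 5 concentrations. Endpoints by linear interpolation between flanking doses. Not reached: highest tested concentration assigned. Definition used: TGI = concentration required for complete inhibition of growth.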
# Experiments:
# Test in all cases: growth of human tumour cells (NCI), 48 h
# [1] = test system: TK-10 renal
# [2] = test system: MALME-3M melanoma
# [3] = test system: SNB-19 CNS
# [4] = test system: OVCAR-8 ovarian
# [5] = test system: OVCAR-3 ovarian
# [6] = test system: HOP-62 NSCLC
# [7] = test system: CAKI-1 renal
# [8] = test system: SK-OV-3 ovarian
# [9] = test system: SF-539 CNS
# [10] = test system: EKVX NSCLC
# [11] = test system: SW-620 colon
# [12] = test system: UACC-257 melanoma
# [13] = test system: ACHN renal
# [14] = test system: UO-31 renal
# [15] = test system: M14 melanoma
# [16] = test system: MDA-MB-231 breast
# [17] = test system: HS 578T breast
SMILES,TGI [1],TGI [2],TGI [3],TGI [4],TGI [5],TGI [6],TGI [7],TGI [8],TGI [9],TGI [10],TGI [11],TGI [12],TGI [13],TGI [14],TGI [15],TGI [16],TGI [17]
O=CC1=CCC2c3[nH]c4ccccc4c3CCN2C1 (configuration not stated),> 396 µM,> 396 µM,> 396 µM,> 396 µM,314 µM,> 39.6 µM,> 396 µM,> 396 µM,> 396 µM,> 396 µM,> 396 µM,347 µM,> 396 µM,–,–,–,–
O=C(c1ccccc1)c1cc(Cl)ccc1NCn1nnc2ccccc21,> 100 µM,–,> 100 µM,> 100 µM,> 100 µM,> 100 µM,–,> 100 µM,> 100 µM,> 100 µM,> 100 µM,> 100 µM,> 100 µM,> 100 µM,> 100 µM,–,–
COC1OC(C(=O)O)C2OC(C)(C)OC12 (configuration not stated),> 100 µM,> 100 µM,> 100 µM,> 100 µM,> 100 µM,> 100 µM,> 100 µM,> 100 µM,> 100 µM,> 100 µM,> 100 µM,> 100 µM,> 100 µM,> 100 µM,> 100 µM,> 100 µM,–
COC(=O)CC1CC2(C(=O)OC)c3[nH]c4ccccc4c3CCN2C1=O (configuration not stated),> 100 µM,> 100 µM,> 100 µM,> 100 µM,> 100 µM,> 100 µM,> 100 µM,> 100 µM,> 100 µM,> 100 µM,> 100 µM,> 100 µM,> 100 µM,> 100 µM,> 100 µM,–,–
CC(CC=O)Nc1nn2c(=O)c3ccccc3nc2s1 (configuration not stated),> 100 µM,> 100 µM,> 100 µM,> 100 µM,> 100 µM,> 100 µM,> 100 µM,> 100 µM,> 100 µM,> 100 µM,> 100 µM,> 100 µM,> 100 µM,48.1 µM,> 100 µM,–,> 100 µM
CN(C)C(=O)Oc1ccc(C(=S)Nc2ccccc2)cc1,–,> 100 µM,> 100 µM,64 µM,> 100 µM,> 100 µM,> 100 µM,> 100 µM,> 100 µM,> 100 µM,> 100 µM,> 100 µM,> 100 µM,> 100 µM,> 100 µM,–,> 100 µM
O=c1[nH]c2ccc([N+](=O)[O-])cc2nc1/C(=N/Nc1ccccc1)C(O)c1ccco1 (configuration not stated),> 100 µM,> 100 µM,> 100 µM,> 100 µM,> 100 µM,> 100 µM,–,> 100 µM,> 100 µM,> 100 µM,> 100 µM,> 100 µM,> 100 µM,> 100 µM,> 100 µM,–,–
